By pIC50 is commonly meant the IC50 on a negative log10 scale, so that one unit is a factor of ten. Higher therefore signals a low IC50.

pIC50: −log10 of the molar value.

Chain of PARP7 (Q7Z3E1 whole entry): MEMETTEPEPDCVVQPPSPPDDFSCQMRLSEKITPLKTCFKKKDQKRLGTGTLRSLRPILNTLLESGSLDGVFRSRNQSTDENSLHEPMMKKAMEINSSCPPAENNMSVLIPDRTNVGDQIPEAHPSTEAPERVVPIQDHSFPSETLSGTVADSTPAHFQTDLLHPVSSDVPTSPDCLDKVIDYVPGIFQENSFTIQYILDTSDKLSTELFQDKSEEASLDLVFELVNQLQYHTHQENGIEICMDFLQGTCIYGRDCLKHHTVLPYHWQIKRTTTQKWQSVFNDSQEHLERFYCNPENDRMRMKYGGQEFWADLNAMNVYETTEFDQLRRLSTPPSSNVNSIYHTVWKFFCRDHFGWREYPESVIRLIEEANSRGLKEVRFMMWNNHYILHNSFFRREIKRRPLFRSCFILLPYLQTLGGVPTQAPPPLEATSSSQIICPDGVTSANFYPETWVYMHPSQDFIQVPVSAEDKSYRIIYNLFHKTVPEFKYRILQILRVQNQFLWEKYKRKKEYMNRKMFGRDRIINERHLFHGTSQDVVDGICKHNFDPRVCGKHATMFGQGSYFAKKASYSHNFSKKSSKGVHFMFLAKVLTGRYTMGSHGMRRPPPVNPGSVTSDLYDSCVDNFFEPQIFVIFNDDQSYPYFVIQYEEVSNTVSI

The target in this assay is PARP7 (Homo sapiens (Human), UniProt Q7Z3E1). Nature of the assay: TR-FRET assay: displacement of biotinylated Probe A from the TIPARP active site (Enzymatic Assay for Inhibition of PARP7). To be noted: TIPARP 6 nM, Probe A 2 nM, 25° C. The class given is binding. Here is the method:
Example A. Enzymatic Assay for Inhibition of PARP7
Displacement of Probe A, a biotinylated probe binding to the TIPARP active site, was measured using a time-resolved fluorescence energy transfer (TR-FRET) assay. 20 nL of a dose response curve of each test compound was spotted in black 384-well polystyrene proxiplates (Perkin Elmer) using a Mosquito (TTP Labtech). Reactions were performed in a 8 μl volume by adding 6 μL of TIPARP and Probe A in assay buffer (20 mM HEPES pH=8, 100 mM NaCl, 0.1% bovine serum albumin, 2 mM DTT and 0.002% Tween20), incubating with test compound at 25° C. for 30 min, then adding 2 μL of ULight-anti 6×His and LANCE Eu-W1024 labeled streptavidin (Perkin Elmer). The final concentrations of TIPARP and Probe A were 6 nM and 2 nM, respectively. The final concentration of ULight-anti 6×His and LANCE Eu-W1024 labeled streptavidin were 4 nM and 0.25 nM, respectively. Reactions were incubated at 25° C. for an additional 30 min, then read on an Envision platereader equipped with a LANCE/DELFIA top mirror (Perkin Elmer) using excitation of 320 nm and emission of 615 nm and […] with a […]. The ratio of the 665/615 nm emission were calculated for each well to determine the amount of complex of TIPARP and Probe Ain each well. Control wells containing a negative control of 0.25% DMSO vehicle or a positive control of 100 μM 5-(5-(piperidin-4-yloxy)isoindolin-2-yl)-4-(trifluoromethyl)pyridazin-3(2H)-one were used to calculate the % inhibition as described below:
[formula] where TRFcmpd is the TR-FRET ratio from the compound treated well, TRFmin is the TR-FRET ratio from the 5-(5-(piperidin-4-yloxy)isoindolin-2-yl)-4-(trifluoromethyl)pyridazin-3(2H)-one—treated positive control well and TRFmax is the TR-FRET ratio from the DMSO-treated negative control well. The % inhibition values were plotted as a function of compound concentration and the following 4-parameter fit was applied to derive the IC50 values:
[formula] where top and bottom are normally allowed to float, but may be fixed at 100 or 0 respectively in a 3-parameter fit. The Hill Coefficient is normally allowed to float but may also be fixed at 1 in a 3-parameter fit. Y is the % inhibition and X is the compound concentration. Synthesis of Probe A
On the technique in general: In TR-FRET formats the signal depends on donor and acceptor labels being close together.
In turn, `C[C@@H](CO[C@@H]1CCN(C2CCN(c3ncc(C(F)(F)F)cn3)CC2)C1=O)Nc1cn[nH]c(=O)c1Br` [Example 32, 4-bromo-5-(((S)-1-(((R)-2-oxo-1-(1-(5-(trifluoromethyl)pyrimidin-2-yl)piperidin-4-yl)pyrrolidin-3-yl)oxy)propan-2-yl)amino)pyridazin-3(2H)-one] gave a negative-log IC50 (pIC50) above 7.00. In turn, `C[C@@H](CO[C@@H]1CCN(C2CCN(c3ncc(F)cn3)CC2)C1=O)Nc1cn[nH]c(=O)c1C(F)(F)F` [Example 42, 5-(((S)-1-(((R)-1-(1-(5-fluoropyrimidin-2-yl)piperidin-4-yl)-2-oxopyrrolidin-3-yl)oxy)propan-2-yl)amino)-4-(trifluoromethyl)pyridazin-3(2H)-one] gave a pIC50 above 7.00. In the case of `C[C@@H](CO[C@H]1C(=O)N(C2CCN(c3ncc(C(F)(F)F)cn3)CC2)CC1(C)C)Nc1cn[nH]c(=O)c1C(F)(F)F` [Example 35B, 5-(((S)-1-(((R)-4,4-dimethyl-2-oxo-1-(1-(5-(trifluoromethyl)pyrimidin-2-yl)piperidin-4-yl)pyrrolidin-3-yl)oxy)propan-2-yl)amino)-4-(trifluoromethyl)pyridazin-3(2H)-one], the pIC50 was above 7.00. `C[C@@H](CO[C@@H]1CCN([C@H]2CCN(c3ccc(C#N)cn3)CC2(F)F)C1=O)Nc1cn[nH]c(=O)c1C(F)(F)F` (single isomer, unassigned) [Example 40B] gave a pIC50 above 7.00. In turn, `C[C@@H]1CN(C2CCN(c3ncc(C(F)(F)F)cn3)CC2)C(=O)[C@H]1OC[C@H](C)Nc1cn[nH]c(=O)c1C(F)(F)F` [Example 37A, 5-(((S)-1-(((3S,4R)-4-methyl-2-oxo-1-(1-(5-(trifluoromethyl)pyrimidin-2-yl)piperidin-4-yl)pyrrolidin-3-yl)oxy)propan-2-yl)amino)-4-(trifluoromethyl)pyridazin-3(2H)-one] gave a negative logarithm of the IC50 (pIC50) of at most 6.00. `COC[C@@H](CO[C@H]1CCN(C2CCN(c3ccc(C#N)cn3)CC2)C1=O)Nc1cn[nH]c(=O)c1C(F)(F)F` [Example 17A, 6-(4-((S)-3-((S)-3-methoxy-2-((6-oxo-5-(trifluoromethyl)-1,6-dihydropyridazin-4-yl)amino)propoxy)-2-oxopyrrolidin-1-yl)piperidin-1-yl)nicotinonitrile] showed a pIC50 of 6.00 to 7.00. Take `C[C@@H](COCC(=O)N[C@H]1CCN(c2ncc(C(F)(F)F)cn2)C[C@@H]1O)Nc1cn[nH]c(=O)c1C(F)(F)F` (single isomer, unassigned) [Example 33B]: the negative-log IC50 (pIC50) is above 7.00. `C[C@@H](COCC(=O)N(C)C1CCN(c2ncc(C(F)(F)F)cn2)CC1)Oc1cn[nH]c(=O)c1Br` [Example 28, (S)-2-(2-((5-bromo-6-oxo-1,6-dihydropyridazin-4-yl)oxy)propoxy)-N-methyl-N-(1-(5-(trifluoromethyl)pyrimidin-2-yl)piperidin-4-yl)acetamide] gave a pIC50 above 7.00. Molecule `C[C@@H](CO[C@@H]1CCN(C2CCN(c3cnc(C(F)(F)F)cn3)CC2)C1=O)Nc1cn[nH]c(=O)c1C(F)(F)F` [Example 13B, 5-(((S)-1-(((R)-2-oxo-1-(1-(5-(trifluoromethyl)pyrazin-2-yl)piperidin-4-yl)pyrrolidin-3-yl)oxy)propan-2-yl)amino)-4-(trifluoromethyl)pyridazin-3(2H)-one] had a pIC50 above 7.00. The molecule `C[C@@H](COCC(=O)NC1CCN(c2ncc(C(F)(F)F)cn2)CC1)Nc1cn[nH]c(=O)c1C(F)(F)F` [Example 1, (S)-2-(2-(6-oxo-5-(trifluoromethyl)-1,6-dihydropyridazin-4-ylamino)propoxy)-N-(1-(5-(trifluoromethyl)pyrimidin-2-yl)piperidin-4-yl)acetamide] gave a pIC50 above 7.00.

The molecule `C[C@@H](COC1CCN(C2CCN(c3cnc(C(F)(F)F)cn3)CC2)C1=O)Nc1cn[nH]c(=O)c1Br` (stereo partly drawn) [Example 12, 4-bromo-5-(((2S)-1-((2-oxo-1-(1-(5-(trifluoromethyl)pyrazin-2-yl)piperidin-4-yl)pyrrolidin-3-yl)oxy)propan-2-yl)amino)pyridazin-3(2H)-one] gave a negative logarithm of the IC50 (pIC50) above 7.00. In the case of `C[C@@H](O)[C@@H](CO[C@@H]1CCN(C2CCN(c3ncc(C(F)(F)F)cn3)CC2)C1=O)Nc1cn[nH]c(=O)c1C(F)(F)F` [Example 67, 5-(((2R,3R)-3-hydroxy-1-(((R)-2-oxo-1-(1-(5-(trifluoromethyl)pyrimidin-2-yl)piperidin-4-yl)pyrrolidin-3-yl)oxy)butan-2-yl)amino)-4-(trifluoromethyl)pyridazin-3(2H)-one] it was above 7.00; in that of `COC[C@@H](CO[C@@H]1CCN(C2CCN(c3ncc(C)cn3)CC2)C1=O)Oc1cn[nH]c(=O)c1C(F)(F)F` [Example 52B, 5-(((S)-1-methoxy-3-(((R)-1-(1-(5-methylpyrimidin-2-yl)piperidin-4-yl)-2-oxopyrrolidin-3-yl)oxy)propan-2-yl)oxy)-4-(trifluoromethyl)pyridazin-3(2H)-one], above 7.00; in that of `C[C@@H](COCC(=O)N(C)C1CCN(c2ccc(C#N)cn2)CC1)Nc1cn[nH]c(=O)c1C(F)(F)F` [Example 6, (S)—N-(1-(5-cyanopyridin-2-yl)piperidin-4-yl)-N-methyl-2-(2-((6-oxo-5-(trifluoromethyl)-1,6-dihydropyridazin-4-yl)amino)propoxy)acetamide], above 7.00. `C[C@@H](COCC(=O)N(C)C1CCN(c2ncc(C(F)(F)F)cn2)CC1)Nc1cn[nH]c(=O)c1C(F)(F)F` [Example 2, (S)—N-methyl-2-(2-(6-oxo-5-(trifluoromethyl)-1,6-dihydropyridazin-4-ylamino)propoxy)-N-(1-(5-(trifluoromethyl)pyrimidin-2-yl)piperidin-4-yl)acetamide]: the negative-log IC50 (pIC50) is above 7.00. `COC[C@@H](CO[C@H]1CCN(C2CCN(c3cnc(C(F)(F)F)cn3)CC2)C1=O)Nc1cn[nH]c(=O)c1C(F)(F)F` [Example 18A, 5-(((S)-1-methoxy-3-(((S)-2-oxo-1-(1-(5-(trifluoromethyl)pyrazin-2-yl)piperidin-4-yl)pyrrolidin-3-yl)oxy)propan-2-yl)amino)-4-(trifluoromethyl)pyridazin-3(2H)-one] had a negative logarithm of the IC50 (pIC50) of 6.00 to 7.00. Take `C[C@@H](CO[C@H]1CCN(C2CCN(c3ncc(C(F)F)cn3)CC2)C1=O)Nc1cn[nH]c(=O)c1C(F)(F)F` [Example 15A, 5-(((S)-1-(((S)-1-(1-(5-(difluoromethyl)pyrimidin-2-yl)piperidin-4-yl)-2-oxopyrrolidin-3-yl)oxy)propan-2-yl)amino)-4-(trifluoromethyl)pyridazin-3(2H)-one]: the negative logarithm of the IC50 (pIC50) is 6.00 to 7.00.

Molecule `C[C@H](Nc1cn[nH]c(=O)c1C(F)(F)F)C(=O)N[C@@H]1CCN(C2CCN(c3ncc(C(F)(F)F)cn3)CC2)C1=O` [Example 61, (S)—N—((R)-2-oxo-1-(1-(5-(trifluoromethyl)pyrimidin-2-yl)piperidin-4-yl)pyrrolidin-3-yl)-2-((6-oxo-5-(trifluoromethyl)-1,6-dihydropyridazin-4-yl)amino)propanamide] had a pIC50 above 7.00. In turn, `C[C@@H](CO[C@H]1CCN(C2CCN(c3ncc(C(F)(F)F)cn3)CC2)C1=O)Nc1cn[nH]c(=O)c1C(F)(F)F` [Example 10A, 5-((S)-1-((S)-1-(1-(5-(trifluoromethyl)pyrimidin-2-yl)piperidin-4-yl)-2-oxopyrrolidin-3-yloxy)propan-2-ylamino)-4-(trifluoromethyl)pyridazin-3(2H)-one] showed a pIC50 of 6.00 to 7.00. Then `C[C@H](CN[C@@H]1CCN(C2CCN(c3ncc(C(F)(F)F)cn3)CC2)C1=O)Nc1cn[nH]c(=O)c1C(F)(F)F` (single isomer, unassigned) [Example 26D], with 6.00 to 7.00; and `C[C@@H](COCC(=O)N(C)C1CCN(c2ncc(C(F)(F)F)cn2)CC1)Oc1cn[nH]c(=O)c1C(F)(F)F` [Example 25, (S)-N-methyl-2-(2-((6-oxo-5-(trifluoromethyl)-1,6-dihydropyridazin-4-yl)oxy)propoxy)-N-(1-(5-(trifluoromethyl)pyrimidin-2-yl)piperidin-4-yl)acetamide], with above 7.00; and `COC[C@@H](CO[C@H]1CCN(C2CCN(c3ccc(C#N)cn3)CC2)C1=O)Oc1cn[nH]c(=O)c1C(F)(F)F` [Example 50A, 6-(4-((S)-3-((S)-3-methoxy-2-((6-oxo-5-(trifluoromethyl)-1,6-dihydropyridazin-4-yl)oxy)propoxy)-2-oxopyrrolidin-1-yl)piperidin-1-yl)nicotinonitrile], with 6.00 to 7.00.

The values are drawn from US11691969B2, “Pyridazinones as PARP7 inhibtors” (Ribon Therapeutics, Inc., priority 2019, dated 2023).
